Measurements as given in US12030897B2, “Pyrrolo[2,1-f][1,2,4]triazine derivatives serving as selective HER2 inhibitors and application thereof” (MEDSHINE DISCOVERY INC., priority 2018, dated 2024).
pIC50: −log10 of the molar value. Where two headings read alike, the source gives them in different places.

Tests used:
[1] = molecular target: HER2 (ErbB2) (Homo sapiens (Human), UniProt P04626); experiment: In vitro enzyme activity, HER2 (ErbB2), [γ-33P]ATP filter assay; assay type: biochemical
Description: The object of this test is to detect the in vitro inhibitory activity of the compound against HER1 (ErbB1), HER2 (ErbB2) and HER4 (ErbB4). The enzymes used in this test were human ErbB1, ErbB2 and ErbB4. Eurofins Pharma Discovery Service provided the activity detection method, and the results of the inhibitory activity of the tested compound against HER1, HER2 and HER4 were shown in Table 1.
Experimental Steps and Methods (96-Well Plate):
5-fold diluted tested compound buffer (5 μL), peptide substrate poly(Glu, Tyr) (4:1) (2.5 μL), ErbB (4-20 ng, 2.5 μL), MnCl2 (50 mM, 1.25 μL), dH2O (3.75 μL) and [γ-^33P]ATP (10 μL) were added, and incubated at 30° C. for 10 min. 3% phosphoric acid was added to terminate the reaction, and 10 μL of the specimen was transferred to Filtermate A. The filter was washed with 75 mM phosphoric acid for three times and methanol once, and transferred to a sealed plastic bag, and a scintillation fluid mixture (4 mL) was added, The intensity of the emitted photons was detected on the scintillation luminescence counter. The photon intensity of the enzyme sample was compared with the photon intensity of the internal control sample, and the level of photon intensity reflected the strength of the tyrosine kinase activity.

[2] = tested on: BT-474 cell; experiment: Cell proliferation inhibitory activity, Cell-Titer-Glo, BT-474; assay type: cell-based; conditions: Homo sapiens, BT-474, 72 h; 3 days incubation
From the text: (§1) Experiment object: to detect the inhibitory activity of the tested compound on cell proliferation.
(§2) Experimental principle: the luciferase in the Cell-Titer-Glo reagent uses luciferin, oxygen and ATP as reaction substrates to produce oxyluciferin and release energy in the form of light. Since the luciferase reaction requires ATP, the total amount of light produced by the reaction is proportional to the total amount of ATP that reflects cell viability.
(§3) Experimental Materials: • cell lines: NCI-N87 cell line (ATCC-CRL-5822); BT-474 cell line (ATCC-HTB-20) • Cell culture medium: RPMI 1640 medium (Invitrogen #22400-105; 10% serum Invitrogen #10090148; L-glutamine 1×, Gibco #25030-081; double antibody Hyclone #SV30010) • CellTiter-Glo® luminescence cell viability detection kit (Promega #G7573) • 384-well cell culture plate (Greiner #781090) • Compound plate (LABCYTE #LP-0200) • CO2 incubator (Thermo #371) • Vi-cell cell counter (Beckman Coulter) • Pipette (Eppendorf) • Pipette (Greiner) • Pipetting gun (Eppendorf) • Multifunctional microplate reader (Envision Reader) • ECHO Liquid-handling workstation (Labcyte-ECHO555)
(§4) The cells were inoculated in a 384-well plate with a density of 1000 cells per well and 25 μL per well. The edge wells were not inoculated with cells, and was supplemented with 25 μL of phosphate buffer.
(§5) The compound was added to the plate with 9 μL per well.
(§6) (2) The compound was diluted with ECHO liquid-handling workstation, and each well of the cell plate was added with 125 nL of compound. Each well of the cell wells of columns 2 and 23 was added with 125 nL of DMSO, and each well of the Media wells of columns 1 and 24 was added with 125 nL of DMSO.
(§7) (3) Each well of the cell plate was supplemented with 25 μL of culture medium, and the final volume in each well of the cell plate was 50 μL. The concentration of the compound was 10 μM, which was subjected to 3 fold dilution to obtain 10 concentrations. Each concentration was duplicated in left and right wells, and the final DMSO concentration was 0.25%.
(§8) 2.3 After adding the compound, it was centrifuged at 1000 rpm for 1 min. The cell plate was placed in a 37° C., 5% CO2 incubator for 3 days.
(§9) The cell plate was taken from the incubator and equilibrated at room temperature for 30 min. 25 μL of Cell-Titer-Glo reagent was added to each well, shaken for 1 min to make it thoroughly mixed, and centrifuged at 1000 rpm for 1 min. After 10 min, the plate was read on PerkinElmer Envision, and the […] reading time was set to 0.2 seconds.

[3] = tested on: NCI-N87 cell; experiment: Cell proliferation inhibitory activity, Cell-Titer-Glo, NCI-N87; assay type: cell-based, human; conditions: Homo sapiens, NCI-N87, 72 h; 3 days incubation
From the text: as §1, §2, §3, §4, §5, §6, §7, §8, §9

[4] = molecular target: CYP2D6 (Homo sapiens (Human), UniProt P10635); experiment: Inhibition of human liver microsomal cytochrome P450 isoenzyme CYP2D6; assay type: in vitro ADME; conditions: human liver microsomes
Description: (§10) The object of this study was to evaluate the effect of Example 4 on the activities of five isoenzymes (CYP1A2, CYP2C9, CYP2C19, CYP2D6 and CYP3A4) of human liver microsomal cytochrome P450 (CYP) using an in vitro test system. The specific probe substrates of CYP450 isozymes were incubated with human liver microsomes and different concentrations of Example 4, and reduced nicotinamide adenine dinucleotide phosphate (NADPH) was added to initiate the reaction. After the reaction was completed, the samples were treated, and liquid chromatography tandem mass spectrometry (LC/MS/MS) was used to detect the metabolites produced by specific substrates.

[5] = molecular target: CYP1A2 (Homo sapiens (Human), UniProt P05177); assay type: in vitro ADME; conditions: microsomes
Description: as §10

[6] = Pharmacokinetic properties in mice; assay type: in vivo; conditions: female, Balb/c; for clearance / Vd / bioavailability: plasma, mouse; for Vd: read-out: Vdss; for bioavailability: read-out: F (bioavailability); for AUC(0-inf) / AUC(0-t) / half-life / Cmax: mouse plasma
Description: The tested compound was dissolved in 10% DMSO/45% PEG400/45% water, vortexed and sonicated to prepare a clear solution with the corresponding concentration, which was filtered through a millipore filter for use. 18 to 20 grams of Balb/c female mice were selected, and the candidate compound solution was administered intravenously at a dose of 1 or 2 mg/kg. The tested compound was dissolved in 10% NMP/10% polyethylene glycol-15-hydroxystearate/80% water, vortexed and sonicated to prepare a clear solution with the corresponding concentration, which was filtered through a millipore filter for use. 18 to 20 grams of Balb/c female mice were selected, and the candidate compound solution was administered orally at a dose of 2 or 10 mg/kg. The whole-blood for a certain period of time was collected to prepare plasma. The drug concentration was analyzed by the LC-MS/MS method, and the pharmacokinetic parameters were calculated by the Phoenix WinNonlin software (Pharsight, USA).

[7] = molecular target: CYP2C19 (Homo sapiens (Human), UniProt P33261); experiment: Inhibition of human liver microsomal cytochrome P450 isoenzyme CYP2C19; assay type: in vitro ADME; conditions: human liver microsomes
Description: as §10

Sequence of CYP1A2 (P05177 whole entry): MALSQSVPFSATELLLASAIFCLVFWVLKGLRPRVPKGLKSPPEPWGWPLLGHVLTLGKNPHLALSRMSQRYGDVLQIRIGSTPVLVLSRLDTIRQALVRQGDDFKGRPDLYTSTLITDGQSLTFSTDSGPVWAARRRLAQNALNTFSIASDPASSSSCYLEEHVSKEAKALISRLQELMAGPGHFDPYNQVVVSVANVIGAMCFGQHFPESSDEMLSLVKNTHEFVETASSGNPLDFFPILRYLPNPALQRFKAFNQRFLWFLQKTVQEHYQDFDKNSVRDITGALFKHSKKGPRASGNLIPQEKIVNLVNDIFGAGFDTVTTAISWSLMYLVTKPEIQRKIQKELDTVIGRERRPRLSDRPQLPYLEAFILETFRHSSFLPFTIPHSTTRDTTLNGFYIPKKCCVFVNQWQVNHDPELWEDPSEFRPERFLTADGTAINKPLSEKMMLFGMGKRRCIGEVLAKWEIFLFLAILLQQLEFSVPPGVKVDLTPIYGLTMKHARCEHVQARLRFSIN
Sequence of CYP2C19 (P33261 whole entry): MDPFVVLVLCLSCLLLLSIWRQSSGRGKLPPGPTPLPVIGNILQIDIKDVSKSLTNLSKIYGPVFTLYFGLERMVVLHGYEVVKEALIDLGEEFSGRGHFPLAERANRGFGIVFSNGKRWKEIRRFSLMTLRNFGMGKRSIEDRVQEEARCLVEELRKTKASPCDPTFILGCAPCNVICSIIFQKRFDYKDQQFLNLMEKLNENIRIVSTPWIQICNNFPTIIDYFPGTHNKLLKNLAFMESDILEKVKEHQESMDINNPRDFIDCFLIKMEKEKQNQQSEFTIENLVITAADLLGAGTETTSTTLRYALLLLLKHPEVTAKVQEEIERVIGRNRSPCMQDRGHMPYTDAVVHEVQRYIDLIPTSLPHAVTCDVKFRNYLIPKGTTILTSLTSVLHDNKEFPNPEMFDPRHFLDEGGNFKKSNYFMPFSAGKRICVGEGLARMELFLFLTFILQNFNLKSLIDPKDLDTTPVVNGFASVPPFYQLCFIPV
Sequence of HER2 (ErbB2) (P04626 23-1255): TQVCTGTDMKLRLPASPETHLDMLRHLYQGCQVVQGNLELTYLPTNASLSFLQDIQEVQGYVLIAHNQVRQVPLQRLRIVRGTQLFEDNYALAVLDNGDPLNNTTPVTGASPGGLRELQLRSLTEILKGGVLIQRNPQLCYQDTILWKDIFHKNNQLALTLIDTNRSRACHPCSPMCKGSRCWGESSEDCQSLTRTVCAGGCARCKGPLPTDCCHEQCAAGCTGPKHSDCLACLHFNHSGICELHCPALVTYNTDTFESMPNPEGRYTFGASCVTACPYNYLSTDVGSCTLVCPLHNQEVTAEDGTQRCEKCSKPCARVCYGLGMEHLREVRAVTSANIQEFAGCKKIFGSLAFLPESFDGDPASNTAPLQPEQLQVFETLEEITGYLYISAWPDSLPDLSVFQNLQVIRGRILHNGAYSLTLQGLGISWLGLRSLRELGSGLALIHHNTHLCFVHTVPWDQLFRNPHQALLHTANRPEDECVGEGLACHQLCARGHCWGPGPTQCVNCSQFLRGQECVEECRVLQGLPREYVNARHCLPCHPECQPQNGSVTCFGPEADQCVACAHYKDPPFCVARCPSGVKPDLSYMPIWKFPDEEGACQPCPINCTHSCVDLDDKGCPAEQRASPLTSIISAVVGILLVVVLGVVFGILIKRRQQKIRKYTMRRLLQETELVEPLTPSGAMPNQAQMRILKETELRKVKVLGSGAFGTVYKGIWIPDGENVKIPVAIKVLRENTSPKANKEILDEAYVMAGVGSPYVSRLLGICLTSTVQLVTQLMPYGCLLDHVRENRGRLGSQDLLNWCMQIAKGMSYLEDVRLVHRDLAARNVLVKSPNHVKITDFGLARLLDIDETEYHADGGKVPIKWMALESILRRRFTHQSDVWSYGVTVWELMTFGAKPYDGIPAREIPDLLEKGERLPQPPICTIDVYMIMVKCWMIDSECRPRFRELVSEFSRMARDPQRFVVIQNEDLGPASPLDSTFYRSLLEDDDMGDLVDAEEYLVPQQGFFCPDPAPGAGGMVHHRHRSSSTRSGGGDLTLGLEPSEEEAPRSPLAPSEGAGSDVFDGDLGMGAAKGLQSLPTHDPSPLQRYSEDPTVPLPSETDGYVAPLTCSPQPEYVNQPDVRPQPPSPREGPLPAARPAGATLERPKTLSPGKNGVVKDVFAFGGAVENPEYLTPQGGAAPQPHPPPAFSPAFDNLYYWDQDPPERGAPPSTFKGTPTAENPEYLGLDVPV
Sequence of CYP2D6 (P10635 whole entry): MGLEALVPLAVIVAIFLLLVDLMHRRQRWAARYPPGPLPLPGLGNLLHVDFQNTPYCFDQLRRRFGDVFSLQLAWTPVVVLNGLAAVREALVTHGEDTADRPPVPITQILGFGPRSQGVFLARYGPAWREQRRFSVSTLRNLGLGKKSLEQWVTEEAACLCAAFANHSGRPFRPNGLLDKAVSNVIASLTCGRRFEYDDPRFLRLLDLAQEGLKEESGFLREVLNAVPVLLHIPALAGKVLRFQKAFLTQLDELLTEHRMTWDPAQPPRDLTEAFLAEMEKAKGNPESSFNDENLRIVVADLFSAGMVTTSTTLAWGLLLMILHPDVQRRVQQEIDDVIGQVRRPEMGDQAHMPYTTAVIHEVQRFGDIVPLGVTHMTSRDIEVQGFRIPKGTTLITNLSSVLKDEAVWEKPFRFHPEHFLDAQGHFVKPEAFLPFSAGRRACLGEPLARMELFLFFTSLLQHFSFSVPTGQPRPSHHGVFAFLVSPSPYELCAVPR

For Cc1cc(Nc2ncnn3ccc(CN4CCC(N)CC4)c23)ccc1Oc1ccn2ncnc2c1 [Example 4], the pIC50 [1] was 7.92, the pIC50 [2] was 7.64 and the pIC50 [3] was 8.15. For the same molecule, the pIC50 [4] was 4.60, the pIC50 [5] was < 4.30 and the clearance ([6]; IV 1 mg/kg) was 19.2 mL/min/kg. For the same molecule, the Vd ([6]; IV 1 mg/kg) was 2.3 L/kg, the clearance ([6]; IV 2 mg/kg) was 33 mL/min/kg and the Vd ([6]; IV 2 mg/kg) was 2.81 L/kg. The bioavailability ([6]; PO 2 mg/kg) was 22.7%, the bioavailability ([6]; PO 10 mg/kg) was 40.2% and the AUC(0-inf) ([6]; IV 1 mg/kg) was 1.57 µM·h. It also gave an AUC(0-t) ([6]; IV 1 mg/kg) of 1.52 µM·h, a half-life ([6]; IV 1 mg/kg) of 1.65 h and an AUC(0-inf) ([6]; IV 2 mg/kg) of 2.15 µM·h. It also gave an AUC(0-t) ([6]; IV 2 mg/kg) of 2.13 µM·h, a half-life ([6]; IV 2 mg/kg) of 1.34 h and an AUC(0-inf) ([6]; PO 2 mg/kg) of 0.95 µM·h. The AUC(0-t) ([6]; PO 2 mg/kg) was 0.928 µM·h, the Cmax ([6]; PO 2 mg/kg) was 306 nM and the half-life ([6]; PO 2 mg/kg) was 1.37 h. The AUC(0-inf) ([6]; PO 10 mg/kg) was 4.33 µM·h, the AUC(0-t) ([6]; PO 10 mg/kg) was 4.28 µM·h and the Cmax ([6]; PO 10 mg/kg) was 1250 nM. For the same molecule, the half-life ([6]; PO 10 mg/kg) was 1.08 h and the pIC50 [7] was 4.44.
